Assays:
[1] = Metabolite ID assay in human liver microsomes; assay type: in vitro ADME; conditions: human liver microsomes 1 mg/mL, 1 mM NADPH, 0, 30, 60 minutes
Description: The metabolic stability of Example 3 and Comparative Example 1 in human liver microsomes was conducted according to the following procedure. Human liver microsomes (35 μL protein concentration 20 mg/mL), 350 μL of 100 mM potassium phosphate buffer (pH 7.4), 245 μL of deionized water and 0.7 μL of compound stock solution (5 mM) were combined in a 1.5 mL microcentrifuge tube. The tube was sealed and gently vortexed for 10 seconds, then placed in an Eppendorf ThermoMixer C and pre-warmed at 37° C. with shaking at 1100 rpm for 5 minutes.
NADPH solution (70 μL; 10 mM in water) was added while shaking, the mixture was aspirated several times with pipet, and 200 μL was removed to a fresh 1.5 mL microcentrifuge tube on ice containing 200 μL of cold acetonitrile. […]
The chilled aliquots were centrifuged at 14,300 rpm in a microcentrifuge for 10 minutes at 10° C., then the supernatant was transferred to a deepwell (1 mL) 96 well plate and sealed with a silicon mat. […] 20 μL samples were analyzed by UPLC-MS in order to identify and quantify the metabolites (Agilent 1290 G4220 binary pump UPLC with Agilent G1316 TCC column oven; Waters Acquity UPLC BEH C18 (130 Å pore size, 1.7 μm particle size, 2.1×50 mm) column held at 40° C.; Agilent 1290 G4212 DAD diode array with wavelength range 190 to 400 nm; Thermo Electron Orbitrap Elite mass spectrometer in FTMS positive mode). […]

[2] = system: FGF19; conditions: cynomolgus monkey, in vivo, po, 300 mg/kg
Description: In vivo pharmacodynamics of a representative compound of Formula (I) and a comparative example compound were determined as follows.
Each dosing group consisted of three male Cynomolgus monkeys. At dosing, the animals weighed between 2.5 and 4.4 kg.
The test articles were administered to the monkeys via oral gavage at 5 mL/kg. Prior to withdrawal, the gavage tube was flushed with approximately 10 mL of water.
Venous blood samples were taken at specified time points after dosing from each animal. The blood samples were collected and transferred into tubes containing potassium (K2) EDTA anticoagulant.
The FGF19 ELISA assay kit from BioVendor (product number RD191107200R) was used to determine FGF19 concentrations in the collected blood samples.
An aliquot of 50 μL of each plasma sample from the 10 and 30 mg/kg dosing groups and the t=0 samples from the 100 and 300 mg/kg groups were treated with 200 μL of acetonitrile (ACN) containing internal standard. […] Samples exceeding the calibration range of the instrument were diluted and re-analyzed. […]
An API 5000 triple quadrupole mass spectrometer from AB Sciex, Foster City, Calif. was used in multiple reaction monitoring mode to quantify the compounds.

## O=C(O)c1cnc(N2CC(O)(c3ccc(OCc4c(-c5c(Cl)cccc5Cl)noc4C4CC4)cc3Cl)C2)c(F)c1 [Comparative Example 1]
[1]
  formation of diol metabolite M1: metabolized to a diol compound (M1)

## O=C(O)c1cnc(N2CC(O)(c3ccc(OCc4c(-c5c(Cl)cc(F)cc5Cl)noc4C4CC4)cc3Cl)C2)c(F)c1 [Example 3, 6-(3-(2-chloro-4-((5-cyclopropyl-3-(2,6-dichloro-4-fluorophenyl)isoxazol-4-yl)methoxy)phenyl)-3-hydroxyazetidin-1-yl)-5-fluoronicotinic acid]
[2]
  maximal plasma AUC achieved: comparable
[2]; male
  plasma FGF19 Cmax: 16 ng/mL

From US10981881B2, “FXR (NR1H4) modulating compounds” (Gilead Sciences, Inc., priority 2016, dated 2021)
